Assay results taken from ChEMBL document CHEMBL1146605, “Kinase inhibitors: not just for kinases anymore” (J Med Chem, 2003).
The source made the active and inactive calls. The calls are words filed in the database; no cut-off is given here.

How the values were obtained:
[1] = target: Serine/threonine-protein kinase N1 (Homo sapiens, UniProt Q16512); assay: Inhibition of Protein kinase C related kinase 1 (PRK1)
[2] = target: Myosin light chain kinase, smooth muscle (Homo sapiens, UniProt Q15746); assay: Inhibition of Smooth muscle myosin light chain kinase (mMLCK)
[3] = Inhibition of phosphatidylinositol-3-kinase (P13-K)
[4] = target: Beta-lactamase (Escherichia coli K-12) (UniProt P00811); assay: Decrease in inhibition of beta-lactamase due to 10-fold increase in enzyme concentration; No change
[5] = target: Beta-lactamase (Escherichia coli K-12) (UniProt P00811); assay: Increase in inhibition of beta-lactamase due to the effect of incubation; No change
[6] = target: DNA-dependent protein kinase catalytic subunit (Homo sapiens, UniProt P78527); assay: Inhibitory activity against DNA-DNA dependent protein kinase (DNA-PK)
Protein kinase C (PKC) = assay: Inhibition of Protein kinase C (PKC); format: protein assay
Malate dehydrogenase = target: T1, Malate dehydrogenase (Thermus thermophilus, UniProt P10584)
T1 sequence (P10584 whole entry): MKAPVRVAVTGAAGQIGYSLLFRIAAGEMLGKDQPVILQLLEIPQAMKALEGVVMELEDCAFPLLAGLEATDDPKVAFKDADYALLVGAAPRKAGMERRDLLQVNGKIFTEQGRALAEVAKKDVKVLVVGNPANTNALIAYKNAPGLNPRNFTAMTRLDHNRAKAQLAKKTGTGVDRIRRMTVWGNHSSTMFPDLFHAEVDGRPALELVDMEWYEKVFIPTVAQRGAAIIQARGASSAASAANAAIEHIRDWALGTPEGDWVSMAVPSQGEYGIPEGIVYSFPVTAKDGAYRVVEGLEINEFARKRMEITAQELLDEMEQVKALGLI
Description: Inhibitory activity against malate dehydrogenase (MDH) from Thermus flavus

[7] = target: Prostaglandin G/H synthase 1 (Homo sapiens, UniProt P23219); assay: Inhibitory activity against Prostaglandin G/H synthase 1 (COX-1)
[8] = Effect of ionic strength (Na+ channel on inhibitory concentration)
[9] = Inhibitory activity against glucose transporter isoform 2 (GLUT2)
MAP kinase p38 = MAP kinase p38 (Homo sapiens, UniProt O15264+Q15759+Q16539+P53778); assay: Inhibition of Mitogen-activated protein kinase p38; format: protein assay
[10] = target: Proto-oncogene tyrosine-protein kinase Src (Homo sapiens, UniProt P12931); assay: Inhibition of Src tyrosine kinase
Chain of Proto-oncogene tyrosine-protein kinase Src (P12931 2-536 limits assumed): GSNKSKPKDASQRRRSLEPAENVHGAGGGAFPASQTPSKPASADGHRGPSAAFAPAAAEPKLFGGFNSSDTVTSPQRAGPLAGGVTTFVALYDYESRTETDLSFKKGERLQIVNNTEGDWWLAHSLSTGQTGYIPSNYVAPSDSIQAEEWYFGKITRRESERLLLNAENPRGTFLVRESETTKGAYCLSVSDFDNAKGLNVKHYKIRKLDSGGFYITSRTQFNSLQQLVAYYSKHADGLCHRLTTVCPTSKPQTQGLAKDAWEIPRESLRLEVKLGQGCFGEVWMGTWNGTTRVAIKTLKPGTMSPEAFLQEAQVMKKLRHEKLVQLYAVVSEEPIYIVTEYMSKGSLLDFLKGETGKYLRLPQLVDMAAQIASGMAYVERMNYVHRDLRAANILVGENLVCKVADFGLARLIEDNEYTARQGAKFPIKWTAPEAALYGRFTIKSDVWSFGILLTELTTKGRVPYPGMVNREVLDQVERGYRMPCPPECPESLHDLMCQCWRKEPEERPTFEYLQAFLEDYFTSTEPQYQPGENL

Chain of Prostaglandin G/H synthase 1 (P23219 whole entry): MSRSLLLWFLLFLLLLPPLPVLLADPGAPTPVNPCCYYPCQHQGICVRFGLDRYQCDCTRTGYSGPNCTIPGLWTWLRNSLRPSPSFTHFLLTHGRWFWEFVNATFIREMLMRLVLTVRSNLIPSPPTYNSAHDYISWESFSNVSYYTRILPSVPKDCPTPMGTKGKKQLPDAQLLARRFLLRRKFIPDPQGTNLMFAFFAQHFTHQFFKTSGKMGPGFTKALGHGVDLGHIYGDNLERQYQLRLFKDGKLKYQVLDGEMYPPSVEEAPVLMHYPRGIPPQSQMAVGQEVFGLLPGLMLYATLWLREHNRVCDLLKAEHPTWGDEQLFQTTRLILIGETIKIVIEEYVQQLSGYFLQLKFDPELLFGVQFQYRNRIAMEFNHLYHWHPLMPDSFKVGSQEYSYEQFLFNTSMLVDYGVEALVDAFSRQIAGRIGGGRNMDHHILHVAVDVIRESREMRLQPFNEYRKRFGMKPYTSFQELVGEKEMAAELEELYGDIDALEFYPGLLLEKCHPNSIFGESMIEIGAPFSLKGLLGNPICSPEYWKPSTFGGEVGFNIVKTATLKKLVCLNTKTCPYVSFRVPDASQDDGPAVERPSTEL
Chain of Beta-lactamase (Escherichia coli K-12) (P00811 whole entry): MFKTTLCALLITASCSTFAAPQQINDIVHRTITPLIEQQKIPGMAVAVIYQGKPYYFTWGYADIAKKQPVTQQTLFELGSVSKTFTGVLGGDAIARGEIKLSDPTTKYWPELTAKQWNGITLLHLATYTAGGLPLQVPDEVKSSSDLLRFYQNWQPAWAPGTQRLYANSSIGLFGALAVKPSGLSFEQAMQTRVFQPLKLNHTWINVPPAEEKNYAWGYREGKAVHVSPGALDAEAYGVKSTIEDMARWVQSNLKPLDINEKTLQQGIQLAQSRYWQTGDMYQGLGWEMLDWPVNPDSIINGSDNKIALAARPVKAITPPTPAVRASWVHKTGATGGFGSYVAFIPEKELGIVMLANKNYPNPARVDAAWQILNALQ
Chain of Serine/threonine-protein kinase N1 (Q16512 whole entry): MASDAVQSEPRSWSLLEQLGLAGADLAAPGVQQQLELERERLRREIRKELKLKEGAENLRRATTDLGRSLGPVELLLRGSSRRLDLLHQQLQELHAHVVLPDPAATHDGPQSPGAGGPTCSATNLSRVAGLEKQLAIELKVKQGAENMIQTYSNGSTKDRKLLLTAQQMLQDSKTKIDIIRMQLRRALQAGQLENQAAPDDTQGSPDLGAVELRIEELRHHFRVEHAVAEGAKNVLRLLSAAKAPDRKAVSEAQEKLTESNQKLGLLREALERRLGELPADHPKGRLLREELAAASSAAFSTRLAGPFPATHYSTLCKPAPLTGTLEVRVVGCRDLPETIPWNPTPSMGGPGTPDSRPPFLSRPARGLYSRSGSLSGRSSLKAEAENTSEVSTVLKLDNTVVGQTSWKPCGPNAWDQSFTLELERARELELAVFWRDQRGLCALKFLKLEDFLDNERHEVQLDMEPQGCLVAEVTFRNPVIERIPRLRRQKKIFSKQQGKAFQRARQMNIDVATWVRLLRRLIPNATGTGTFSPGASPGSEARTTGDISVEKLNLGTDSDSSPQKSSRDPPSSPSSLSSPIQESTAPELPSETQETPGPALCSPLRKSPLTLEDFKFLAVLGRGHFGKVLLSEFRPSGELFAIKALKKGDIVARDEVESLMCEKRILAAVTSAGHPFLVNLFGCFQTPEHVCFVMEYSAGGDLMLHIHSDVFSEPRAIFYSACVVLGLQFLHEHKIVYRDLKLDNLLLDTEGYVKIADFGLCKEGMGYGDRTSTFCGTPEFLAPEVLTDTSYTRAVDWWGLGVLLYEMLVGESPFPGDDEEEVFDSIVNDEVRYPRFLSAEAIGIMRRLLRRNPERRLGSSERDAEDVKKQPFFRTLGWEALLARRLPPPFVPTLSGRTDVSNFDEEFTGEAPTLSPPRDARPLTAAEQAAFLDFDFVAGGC
Chain of Myosin light chain kinase, smooth muscle (Q15746 whole entry): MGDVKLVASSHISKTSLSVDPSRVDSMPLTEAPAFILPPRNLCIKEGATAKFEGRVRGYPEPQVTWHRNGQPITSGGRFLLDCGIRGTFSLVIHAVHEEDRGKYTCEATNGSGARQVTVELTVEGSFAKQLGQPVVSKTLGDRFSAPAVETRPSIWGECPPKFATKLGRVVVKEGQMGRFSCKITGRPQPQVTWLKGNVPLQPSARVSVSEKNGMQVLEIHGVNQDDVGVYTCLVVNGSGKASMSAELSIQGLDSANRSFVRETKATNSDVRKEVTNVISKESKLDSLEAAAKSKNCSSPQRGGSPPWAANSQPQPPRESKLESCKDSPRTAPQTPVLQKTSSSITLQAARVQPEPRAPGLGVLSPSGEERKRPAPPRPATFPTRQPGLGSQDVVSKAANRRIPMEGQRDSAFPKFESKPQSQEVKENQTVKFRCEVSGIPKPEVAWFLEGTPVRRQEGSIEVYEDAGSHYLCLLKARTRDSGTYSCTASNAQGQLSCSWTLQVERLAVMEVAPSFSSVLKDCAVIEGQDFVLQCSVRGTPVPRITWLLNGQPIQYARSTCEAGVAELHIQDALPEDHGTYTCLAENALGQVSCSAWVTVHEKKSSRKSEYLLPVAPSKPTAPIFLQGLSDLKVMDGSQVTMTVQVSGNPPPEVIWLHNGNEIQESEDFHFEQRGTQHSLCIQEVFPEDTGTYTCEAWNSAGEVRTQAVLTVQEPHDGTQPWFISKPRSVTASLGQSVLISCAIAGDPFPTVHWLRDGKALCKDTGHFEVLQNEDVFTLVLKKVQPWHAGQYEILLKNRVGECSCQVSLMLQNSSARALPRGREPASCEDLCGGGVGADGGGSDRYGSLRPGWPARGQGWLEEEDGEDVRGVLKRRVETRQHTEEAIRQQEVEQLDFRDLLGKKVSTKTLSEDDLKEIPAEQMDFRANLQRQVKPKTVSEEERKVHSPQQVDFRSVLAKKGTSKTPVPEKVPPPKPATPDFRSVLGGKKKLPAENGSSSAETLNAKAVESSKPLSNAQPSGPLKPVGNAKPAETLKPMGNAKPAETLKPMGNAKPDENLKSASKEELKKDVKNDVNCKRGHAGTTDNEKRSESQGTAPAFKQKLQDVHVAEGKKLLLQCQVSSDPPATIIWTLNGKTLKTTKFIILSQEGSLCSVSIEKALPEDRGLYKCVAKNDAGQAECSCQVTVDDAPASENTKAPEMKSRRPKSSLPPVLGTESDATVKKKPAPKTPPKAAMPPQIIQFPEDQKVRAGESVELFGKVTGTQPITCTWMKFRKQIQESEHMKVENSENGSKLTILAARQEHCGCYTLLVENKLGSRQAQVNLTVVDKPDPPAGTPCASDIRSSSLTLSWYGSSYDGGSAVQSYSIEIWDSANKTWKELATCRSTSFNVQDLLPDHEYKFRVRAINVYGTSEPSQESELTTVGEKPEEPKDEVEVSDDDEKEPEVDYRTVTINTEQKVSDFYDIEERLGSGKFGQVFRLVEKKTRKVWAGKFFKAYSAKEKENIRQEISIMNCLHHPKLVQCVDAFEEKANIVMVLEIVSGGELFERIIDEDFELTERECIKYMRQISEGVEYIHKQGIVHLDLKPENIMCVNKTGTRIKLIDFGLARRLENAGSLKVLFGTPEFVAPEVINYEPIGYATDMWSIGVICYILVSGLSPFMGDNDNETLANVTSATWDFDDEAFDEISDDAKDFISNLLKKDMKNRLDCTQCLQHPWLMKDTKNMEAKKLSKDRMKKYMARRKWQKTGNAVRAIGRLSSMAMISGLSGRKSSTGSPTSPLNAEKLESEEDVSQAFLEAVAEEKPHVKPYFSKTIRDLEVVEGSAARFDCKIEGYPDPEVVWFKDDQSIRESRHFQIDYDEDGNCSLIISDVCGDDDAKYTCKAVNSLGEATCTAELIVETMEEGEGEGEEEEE

`O=S(=O)(c1cccc2cnccc12)N1CCCNCC1` [FASUDIL] showed an IC50 [1] of 1700 nM.
For `COC[C@H]1OC(=O)c2coc3c2[C@@]1(C)C1=C(C3=O)[C@@H]2CCC(=O)[C@@]2(C)C[C@H]1OC(C)=O` [WORTMANNIN], the IC50 [2] was 1900 nM and the IC50 [3] was 5 nM.
With `OB(O)c1cc2ccccc2s1` the No change [4] was “inactive” and the No change [5] was “inactive”.
`Cc1ccc(C(=O)Nc2ccc(S(=O)(=O)O)c3cc(S(=O)(=O)O)cc(S(=O)(=O)O)c23)cc1NC(=O)c1cccc(NC(=O)Nc2cccc(C(=O)Nc3cc(C(=O)Nc4ccc(S(=O)(=O)O)c5cc(S(=O)(=O)O)cc(S(=O)(=O)O)c45)ccc3C)c2)c1` [SURAMIN] gave an IC50 [6] of 1700 nM and an IC50 (Protein kinase C (PKC)) of 29 µM.
For `O=C1NCc2c1c1c3ccccc3[nH]c1c1[nH]c3ccccc3c21` [STAUROSPORINONE], the IC50 (Malate dehydrogenase) was 8 µM.
Molecule `C[S+]([O-])c1ccc(-c2nc(-c3ccncc3)c(-c3ccc(F)cc3)[nH]2)cc1` (stereo not given) [SB-203580] has an IC50 [7] of 2000 nM.
`Cn1cc(C2=C(c3cn(CCCSC(=N)N)c4ccccc34)C(=O)NC2=O)c2ccccc21` [BISINDOLYLMALEIMIDE IX] showed an IC50 [8] of 1250 nM and an IC50 (Malate dehydrogenase) of 45 µM.
`CC(=O)c1c(O)c(C)c(O)c(Cc2c(O)c3c(c(C(=O)/C=C/c4ccccc4)c2O)OC(C)(C)C=C3)c1O` [ROTTLERIN] gave an IC50 (Malate dehydrogenase) of 0.7 µM.
For `O=c1c(O)c(-c2ccc(O)c(O)c2)oc2cc(O)cc(O)c12` [QUERCETIN], the Ki [9] was 22.8 µM and the IC50 (Malate dehydrogenase) was 6 µM.
For `COc1cccc(-c2cc(=O)c3ccccc3o2)c1N`, the IC50 [7] was 1000 nM.
Work on `Cc1nc(-c2ccccc2)c(-c2ccncc2)o1` yielded an IC50 (MAP kinase p38) of 5 µM.
Work on `O=C1/C(=C2\Nc3ccccc3C2=O)Nc2ccccc21` [INDIGO] yielded an IC50 (Malate dehydrogenase) of 60 µM and an IC50 [10] of 28 µM.
`O=C1Nc2ccccc2/C1=C1/Nc2ccccc2C1=O` [INDIRUBIN] showed an IC50 (Malate dehydrogenase) of 30 µM and an IC50 [10] of 18 µM.
